Data from patent US20210290648A1, “Potentiation of B-Lactam Antibiotics and B-Lactam/B-Lactamase Inhibitor Combinations Against Multidrug and Extensively Drug-Resistant Pseudomonas Aeruginosa Using Non-Ribosomal Tobramycin-Cyclam Conjugates” (University of Manitoba, priority 2018, published 2021).

Legend:
Assay type in all cases: cell-based, Pseudomonas aeruginosa
PA 101243 = assay: Checkerboard combination study / MIC; conditions: PA 101243
PAO750 = system: PAO750
Text: (§1) PAO200 is a tnexA-rnexB-oprM deletion strain while PAO750 lacks five important RND pumps (McxAB-OprM, MexCD-OprJ, MexEF-OprN, Mex JK, and MexXY) and the outer membrane protein OpmH (46, 47). Some of these pumps are homologues of broad substrate specificities that extrude different classes of antimicrobial agents and confer resistance on P. aeruginosa (48).
(§2) Antimicrobial Susceptibility Assay. The in vitro antimicrobial activity of all compounds/antibiotics against a panel of bacteria was evaluated by microbroth dilution method in accordance with the Clinical and Laboratory Standards Institute (CLSI) guidelines. Overnight grown bacterial cultures were diluted in saline to achieve a 0.5 McFarland turbidity, followed by 1:50 dilution in Mueller-Hinton broth (MHB) for inoculation to a final concentration of approximately 5×10^5CFU/mL. The antimicrobial agents were 2-fold serially diluted in MHB in a 96-well plate and incubated at 37° C. with equal volumes of inoculum for 18 h. The lowest concentration that prevented the visible growth of bacteria was defined as the MIC for each antimicrobial agent. The broth with or without bacterial cells was used as positive or negative control, respectively.
(§3) Checkerboard Assay. Combination studies with different antibiotics were performed in 96-well plates as previously described (22). Briefly, the antibiotic of interest was serially diluted in MHB along the abscissa while the adjuvant (newly synthesized conjugates) was serially diluted in MHB along the ordinate. This creates a 10×7 matrix wherein each well consists of a combination of different antibiotic and adjuvant concentrations. Overnight grown bacterial cultures were diluted in saline to achieve a 0.5 McFarland turbidity, followed by 1:50 dilution in Mueller-Hinton broth (MHB) for inoculation to a final concentration of approximately 5×10^5CFU/mL. Equal volume of this bacterial culture was then added to each well and incubated at 37° C. for 18 h. After incubation, the plates were read on EMax® Plus microplate reader (Molecular Devices, Sunnyvale, Calif., USA) at 590 nm. MIC was recorded as wells with the lowest concentration of drugs with no bacterial growth. The fractional inhibitory concentration (FIC) for each antibiotic was calculated by dividing the MIC of the antibiotic in the presence of adjuvant by the MIC of the antibiotic alone. Similarly, the FIC of adjuvant was calculated by dividing the MIC of the adjuvant in the presence of antibiotic by the MIC of the adjuvant alone. FIC index is the sum of both FICs. FIC indices of <0.5 were deemed synergistic; 0.5-4, no interaction; and >4, antagonistic.

PAO200 = system: PAO200
Text: as §1, §2, §3

PA 262 = assay: Checkerboard combination study / MIC
PA 101885 = assay: Checkerboard combination study / MIC
PA 100036 = assay: Checkerboard combination study / MIC
[1] = system: MDR/XDR P. aeruginosa clinical isolates; assay: MIC and checkerboard, panel of clinical isolates; conditions: antibiotic + compound 2 (8.7 μM); resistant P. aeruginosa isolates
PA 260 = assay: Checkerboard combination study / MIC
WT P. aeruginosa PAO1 = assay: Checkerboard combination study / MIC
PA 114228 = assay: Checkerboard combination study / MIC
PA 264 = assay: Checkerboard combination study / MIC
PA 259 = assay: Checkerboard combination study / MIC
[2] = MIC of antibiotic combined with compound 2

CCN1CCN(C(=O)N[C@@H](C(=O)N[C@@H]2C(=O)N3[C@@H]2SC(C)(C)[C@@H]3C(=O)O)c2ccccc2)C(=O)C1=O [Piperacillin]
MICCombination (antibiotic) (PA 101243; [2]): 128 µg/mL
FICI (PA 101243; antibiotic + compound 2): <1.06
MICAntibiotic (PA 101243; antibiotic alone): 128 µg/mL
FICAntibiotic (PA 101243; with compound 2): 1.000
MIC of antibiotic + Compound 2 in PAO750 (PAO750; + compound 2 ≤8.7 μM, PAO750): 0.5 µg/mL
fold change of MIC + Compound 2 in PAO750 (PAO750; + compound 2 ≤8.7 μM, PAO750): 4
MIC of antibiotic alone in PAO750 (PAO750; antibiotic alone, PAO750 efflux-deficient): 2 µg/mL
MIC of antibiotic + Compound 2 in PAO200 (PAO200; + compound 2 ≤8.7 μM, PAO200): 1 (1) μg/ml
fold change of MIC + Compound 2 in PAO200 (PAO200; + compound 2 ≤8.7 μM, PAO200): 1 (1)
MIC of antibiotic alone in PAO200 (PAO200; antibiotic alone, PAO200 efflux-deficient): 1 µg/mL
MICCombination (antibiotic) (PA 262; [2]): 512 µg/mL
FICI (PA 262; antibiotic + compound 2): <0.52
MICAntibiotic (PA 262; antibiotic alone): 1024 µg/mL
FICAntibiotic (PA 262; with compound 2): 0.500
MICCombination (antibiotic) (PA 101885; [2]): 4 µg/mL
FICI (PA 101885; antibiotic + compound 2): <0.31
MICAntibiotic (PA 101885; antibiotic alone): 16 µg/mL
FICAntibiotic (PA 101885; with compound 2): 0.250
MICCombination (antibiotic) (PA 100036; [2]): 64 µg/mL
FICI (PA 100036; antibiotic + compound 2): <1.06
MICAntibiotic (PA 100036; antibiotic alone): 64 µg/mL
FICAntibiotic (PA 100036; with compound 2): 1.000
resistant isolates reaching CLSI clinical breakpoint [1]: zero out of six
MICCombination (antibiotic) (PA 260; [2]): 512 µg/mL
FICI (PA 260; antibiotic + compound 2): <1.06
MICAntibiotic (PA 260; antibiotic alone): 512 µg/mL
FICAntibiotic (PA 260; with compound 2): 1.000
MIC of antibiotic + Compound 2 in PAO1 (WT P. aeruginosa PAO1; + compound 2 ≤8.7 μM, PAO1): 2 µg/mL
fold change of MIC + Compound 2 in PAO1 (WT P. aeruginosa PAO1; + compound 2 ≤8.7 μM, PAO1): 4
MIC (WT P. aeruginosa PAO1; Pseudomonas aeruginosa, PAO1, 18 h, antibiotic alone, WT PAO1 (Table 2), read-out: MIC alone): 8 µg/mL
FICI in the presence of ≤10 μM of 1 (WT P. aeruginosa PAO1; antibiotic + compound 1, WT PAO1): 0.26
MIC of Antibiotics in the presence of ≤10 μM of 1 (WT P. aeruginosa PAO1; antibiotic + compound 1 ≤10 μM, WT PAO1): 2 µg/mL
FICI in the presence of ≤10 μM of 2 (WT P. aeruginosa PAO1; antibiotic + compound 2, WT PAO1): 0.25
MIC of Antibiotics in the presence of ≤10 μM of 2 (WT P. aeruginosa PAO1; antibiotic + compound 2 ≤10 μM, WT PAO1): 2 µg/mL
FICI in the presence of ≤10 μM of 3 (WT P. aeruginosa PAO1; antibiotic + compound 3, WT PAO1): 0.25
MIC of Antibiotics in the presence of ≤10 μM of 3 (WT P. aeruginosa PAO1; antibiotic + compound 3 ≤10 μM, WT PAO1): 2 µg/mL
MIC of antibiotic alone in PAO1 (WT P. aeruginosa PAO1; antibiotic alone, PAO1 wild-type (Table 4)): 8 µg/mL
MICCombination (antibiotic) (PA 114228; [2]): 8 µg/mL
FICI (PA 114228; antibiotic + compound 2): <0.50
MICAntibiotic (PA 114228; antibiotic alone): 16 µg/mL
FICAntibiotic (PA 114228; with compound 2): 0.500
MICCombination (antibiotic) (PA 264; [2]): 1024 µg/mL
FICI (PA 264; antibiotic + compound 2): <0.52
MICAntibiotic (PA 264; antibiotic alone): 2048 µg/mL
FICAntibiotic (PA 264; with compound 2): 0.500
MICCombination (antibiotic) (PA 259; [2]): 256 µg/mL
FICI (PA 259; antibiotic + compound 2): <0.50
MICAntibiotic (PA 259; antibiotic alone): 512 µg/mL
FICAntibiotic (PA 259; with compound 2): 0.500
